Source: patent publication US9162979B2, “1,5-Diary1-2-alkylpyrrole-3-substituted nitro esters, selective COX-2 inhibitors and nitric oxide donors” (ROTTAPHARM BIOTECH S.R.L., priority 2010, dated 2015)

How the values were obtained:
[1] = system: rat paw oedema induced by carrageenan; assay: Volume of oedema test (carrageenan); assay type: in vivo
Method: The rat paw volumes were measured using a pletismometer. Four hours after injecting carrageenan 1.0% (0.1 ml injection), the volume of the right hind-paw was measured and compared with that of controls treated with a saline/carrageenan solution. The rats were administered the test compounds 3.5 hours after the carrageenan. The results are given as paw volume expressed in ml. The results relating to the analgesic and anti-oedemic activity in the carrageenan test for some representative compounds of the invention are shown in Table 11.
(§1) The test was performed using 6 animals per group, all the compounds were administered per os, 30 min before the test. The carrageenan is administered 2 h before the test.

[2] = system: carrageenan-induced inflammatory state in the rat; assay: Carrageenan test: nociceptive threshold (weight supported); assay type: in vivo; settings: for Weight supported (g) Before treatment: baseline before treatment
Method: (§2) Male Swiss albino mice (23-25 g) and Wistar rats (150-200 g) were used.
The nociceptive threshold in the rat was determined with an analgesiometer, as described by Leighton et al. (Br. J. Pharmacol., 1988, 93, 553-560), the pressure was measured before the treatment and after 30 and 60 min. To reproduce the inflammatory state in the rat, carrageenan was administered i.p. (0.1 ml, 1%) 4 h before the test.
as §1

[3] = system: isolated rings of thoracic aorta; assay: Evaluation of release of NO: vasorelaxing activity on endothelium-denuded aortic rings contracted with KCl; parameters: species or system rat; key to NO release properties Emax (maximum vasorelaxing effect) / NO release properties pIC50 (vasorelaxing potency): S.E: Scarcely Effective: it is not possible to detect NO release comparable to the other compounds mentioned here; settings: for IC50 / Emax: Rattus norvegicus; for IC50: concentration reducing contractile tone induced by 20 mM KCl by half, read-out: NO release properties pIC50 (vasorelaxing potency) (converted); for Emax / NO release properties Emax (maximum vasorelaxing effect): relative to contractile tone induced by 20 mM KCl, 1 nM-10 μM; for Emax: read-out: NO release properties Emax (maximum vasorelaxing effect)
In short: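 Endothelium-denuded male Wistar rat thoracic aorta rings (2 g preload, Tyrode, 37 °C, 95% O2/5% CO2) precontracted with 20 mM KCl, then given cumulative test compound (1 nM–10 μM). Relaxation as % of KCl tone; Emax and pIC50 reported as mean±SE of 5–10 experiments. Also repeated with 1 μM ODQ.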

[4] = system: rat liver homogenate; settings: 1 mM
Source text: (§3) By evaluating the time-dependent increase in nitrite concentrations in the liver homogenate, it was possible to extrapolate two descriptive parameters:
(§4) Time (in minutes) required for an amount of nitrite to be released by the test compound equal to half its maximum release.

[5] = system: rat liver homogenate; assay: Evaluation of release of nitrites in hepatic homogenate; settings: for Maximum release (%): nitrite after 4 hours, 1 mM, 37° C., as percentage of SNP
Source text: as §3, §4

[6] = system: mouse abdominal contraction (writhing) induced by acetic acid; assay: Abdominal constriction test induced by acetic acid; assay type: in vivo
Method: as §2
The antinociceptive activity was determined by the mouse abdominal contraction test using acetic acid (0.6%), which induces writhing, according to Koster's method (Fed. Proc., 1959, 18, 412-418). The number of stretching movements was counted for 10 minutes, starting 5 minutes after injection of acetic acid. The results relating to analgesic activity in the abdominal constriction test with representative compounds of the invention are shown in Table 10.
The test was carried out using 10 animals in the treated group and 20 in the control group (CMC); all the compounds were administered per os with the exception of the compound of Example 8, which was administered i.p.

[7] = target: COX-2 (Mus musculus (Mouse), UniProt Q05769); assay: Evaluation of COX-2 activity: PGE2 production in LPS-stimulated J774 cells; assay type: cell-based, murine; settings: J774 cells stimulated 24 hours with LPS 10 μg/mL; PGE2 by radio-immunological assay; read-out: Cyclooxygenase inhibition COX-2 IC50
In short: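 Murine J774 macrophages switched to serum-free medium before stimulation; PGE2 in supernatants measured by radioimmunoassay, triplicate wells per condition. IC50 with 95% intervals from sigmoidal variable-slope dose-response fit.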

[8] = system: MIA-induced osteoarthritis; assay: Chronic pain from MIA-induced osteoarthritis; assay type: in vivo, rat; settings: 20 mg/kg per os twice daily for 14 days; for Weight supported (g) Before treatment: baseline before treatment
Method: The compounds are administered per os at a dose of 20 mg/kg twice daily for 14 days. Monosodium iodoacetate (MIA), 2 mg in 25 μL is injected in the left knee of anaesthetized rats, the test is carried out according to the literature. Each experiment represents the mean value for 5 animals.

[9] = system: carrageenan-induced inflammatory state in the rat; assay: Carrageenan test: nociceptive threshold (weight supported); assay type: in vivo; settings: 20 mg/kg per os

COX-2, sequence (Q05769 18-604): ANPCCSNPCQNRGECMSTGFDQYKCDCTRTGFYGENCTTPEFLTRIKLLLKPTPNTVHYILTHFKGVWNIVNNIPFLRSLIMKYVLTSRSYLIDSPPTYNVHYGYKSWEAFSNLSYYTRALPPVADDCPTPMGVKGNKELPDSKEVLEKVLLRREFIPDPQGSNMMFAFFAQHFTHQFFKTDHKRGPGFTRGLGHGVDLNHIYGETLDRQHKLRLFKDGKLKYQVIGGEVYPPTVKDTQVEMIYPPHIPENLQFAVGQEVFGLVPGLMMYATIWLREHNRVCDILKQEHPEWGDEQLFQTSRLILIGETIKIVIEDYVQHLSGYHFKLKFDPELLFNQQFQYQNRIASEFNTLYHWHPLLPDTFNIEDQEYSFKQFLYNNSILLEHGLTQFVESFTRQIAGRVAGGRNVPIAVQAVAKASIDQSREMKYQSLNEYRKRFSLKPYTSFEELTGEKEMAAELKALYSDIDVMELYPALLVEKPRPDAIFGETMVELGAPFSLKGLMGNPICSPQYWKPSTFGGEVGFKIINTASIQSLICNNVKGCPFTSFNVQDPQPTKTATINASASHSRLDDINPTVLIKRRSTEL

Compound | Oedema Volume ([1]; 10 mg/kg per os) | Weight supported (g) After treatment 30 min ([2]; 10 mg/kg per os) | Weight supported (g) After treatment 60 min ([2]; 10 mg/kg per os) | Weight supported (g) Before treatment ([2]; 10 mg/kg per os) | IC50 [3] | Emax [3] | T ½ [4] | Maximum release (%) [5] | N writhes ([6]; 20 mg/kg per os) | N writhes ([6]; 40 mg/kg per os) | IC50 [7] | further results
Cc1ccc(-c2cc(C(F)(F)F)nn2-c2ccc(S(N)(=O)=O)cc2)cc1 [Celecoxib, reference compound] | 1.91 ± 0.04 mL | 52.9 ± 3.1 g | 48.3 ± 3.4 g | 30.9 ± 2.6 g | – | – | – | – | – | – | – | –
Cc1c(CC(=O)OCCO[N+](=O)[O-])cc(-c2ccc(S(C)(=O)=O)cc2)n1-c1ccc(F)cc1 [Example 2, 2-(Nitrooxy)ethyl-2-[(1-(4-fluorophenyl)-2-methyl-5-(4-(methylsulphonyl)phenyl)-1H-pyrrol-3-yl)]acetate] | – | – | – | – | 3.47 µM | 58 ± 5% | 68.7 ± 12.5 min | 26 ± 7% | – | – | – | –
Cc1c(CC(=O)OCCO[N+](=O)[O-])cc(-c2ccc(S(C)(=O)=O)cc2)n1-c1cccc(F)c1 [Example 3, 2-(Nitrooxy)ethyl-2-[(1-(3-fluorophenyl)-2-methyl-5-(4-methylsulphonylphenyl)-1H-pyrrol-3-yl)]acetate] | – | – | – | – | 0.331 µM | 69 ± 4% | – | – | 17.1 ± 2.3 | 9.4 ± 2.5 | 19 nM | Oedema Volume ([1]; 40 mg/kg per os): 2.17 ± 0.08 mL; Weight supported (g) After treatment 30 min ([2]; 40 mg/kg per os): 54.1 ± 3.7 g; Weight supported (g) After treatment 60 min ([2]; 40 mg/kg per os): 38.7 ± 3.1 g; Weight supported (g) Before treatment ([2]; 40 mg/kg per os): 32.6 ± 2.7 g
Cc1c(CCOCCO[N+](=O)[O-])cc(-c2ccc(S(C)(=O)=O)cc2)n1-c1ccc(F)cc1 [Example 37, 2-[2-[2-(1-(4-Fluorophenyl)-2-methyl-5-(4-methylsulphonylphenyl)-1H-pyrrol-3-yl]ethoxy]ethyl Nitrate] | 1.87 ± 0.07 mL | 55.1 ± 4.7 g | 52.6 ± 4.0 g | 34.7 ± 2.7 g | – | 49 ± 3% | 42.8 ± 6.9 min | 25 ± 3% | 15.2 ± 3.3 | – | 14 nM | N writhes ([6]; 10 mg/kg per os): 19.1 ± 2.7; Weight supported (g) After treatment 30 min [8]: 45.1 ± 3.7 g; Weight supported (g) After treatment 4 h [8]: 39.1 ± 3.5 g; Weight supported (g) After treatment 24 h [8]: 33.8 ± 3.7 g; Weight supported (g) Before treatment [8]: 34.6 ± 3.1 g
Cc1c(CCOCCO)cc(-c2ccc(S(C)(=O)=O)cc2)n1-c1ccc(F)cc1 [Example 37-II] | – | – | – | – | – | – | – | – | – | 18.2 ± 3.1 | – | Oedema Volume ([1]; 20 mg/kg per os): 2.08 ± 0.07 mL; Weight supported (g) After treatment 30 min ([2]; 20 mg/kg per os): 46.8 ± 3.7 g; Weight supported (g) After treatment 60 min ([2]; 20 mg/kg per os): 38.7 ± 3.3 g; Weight supported (g) Before treatment ([2]; 20 mg/kg per os): 32.5 ± 3.4 g; Weight supported (g) After treatment 30 min [8]: 51.2 ± 3.9 g; Weight supported (g) After treatment 4 h [8]: 50.3 ± 3.8 g; Weight supported (g) After treatment 24 h [8]: 48.1 ± 3.3 g; Weight supported (g) After treatment 36 h [8]: 47.4 ± 3.3 g; Weight supported (g) Before treatment [8]: 33.5 ± 2.6 g
Cc1c(CCOCCO[N+](=O)[O-])cc(-c2ccc(S(C)(=O)=O)cc2)n1-c1cccc(F)c1 [Example 38, 2-[2-[2-(1-(3-Fluorophenyl)-2-methyl-5-(4-methylsulphonylphenyl)-1H-pyrrol-3-yl]ethoxy]ethyl Nitrate] | – | – | – | – | 4.79 µM | 60 ± 4% | 60.7 ± 8.7 min | 28 ± 3% | – | 25.3 ± 3.6 | 28 nM | –
Cc1c(CCOCCO[N+](=O)[O-])cc(-c2ccc(S(C)(=O)=O)cc2)n1-c1ccc(F)c(F)c1 [Example 39, 2-[2-[2-(1-(3,4-Difluorophenyl)-2-methyl-5-(4-methylsulphonylphenyl)-1H-pyrrol-3-yl]ethoxy]ethyl Nitrate] | – | – | – | – | – | 43 ± 6% | 68.2 ± 8.5 min | 30 ± 1% | 26.3 ± 3.4 | – | 920 nM | –
Cc1c(CCOCCCO[N+](=O)[O-])cc(-c2ccc(S(C)(=O)=O)cc2)n1-c1ccc(F)cc1 [Example 41, 3-[2-[2-(1-(4-Fluorophenyl)-2-methyl-5-(4-methylsulphonylphenyl)-1H-pyrrol-3-yl)]ethoxy]propyl Nitrate] | – | – | – | – | – | – | – | – | – | – | 190 nM | NO release properties Emax (maximum vasorelaxing effect) [3]: S.E.; Weight supported after 120 min [9]: 45.2±4.1; Oedema Volume ([1]; 20 mg/kg per os): 1.85 ± 0.08 mL; Weight supported (g) After treatment 30 min ([2]; 20 mg/kg per os): 49.2 ± 3.7 g; Weight supported (g) After treatment 60 min ([2]; 20 mg/kg per os): 50.7 ± 3.8 g; Weight supported (g) Before treatment ([2]; 20 mg/kg per os): 30.9 ± 2.8 g
Cc1c(CCOCCCO[N+](=O)[O-])cc(-c2ccc(S(C)(=O)=O)cc2)n1-c1cccc(F)c1 [Example 42, 3-[2-(1-(3-Fluorophenyl)-2-methyl-5-(4-methylsulphonylphenyl)-1H-pyrrol-3-yl)ethoxy]propyl Nitrate] | – | – | – | – | – | – | 84.4 ± 11.9 min | 52 ± 8% | – | – | 430 nM | NO release properties Emax (maximum vasorelaxing effect) [3]: S.E.
COc1ccc2cc([C@H](C)C(=O)OCCCCO[N+](=O)[O-])ccc2c1 [Naproxcinod, naproxcinod, reference compound] | 1.95 ± 0.07 mL | 47.9 ± 3.5 g | 46.2 ± 3.8 g | 33.5 ± 3.7 g | 5.25 µM | 62 ± 4% | 8.6 ± 2.9 min | 20 ± 1 % | – | – | – | course of nitrite release ([5]; incubation in rat liver homogenate): very rapid, slight release of nitrites; Oedema Volume ([1]; 30 mg/kg per os): 1.88 ± 0.07 mL; Weight supported (g) After treatment 30 min ([2]; 30 mg/kg per os): 48.2 ± 2.8 g; Weight supported (g) After treatment 60 min ([2]; 30 mg/kg per os): 43.9 ± 3.7 g; Weight supported (g) Before treatment ([2]; 30 mg/kg per os): 32.7 ± 3.8 g
